From a melting point compilation (Tetko et al.; mined from patent text by program, amines drawn as free bases though some values may be those of a salt) come the findings set out here.

Some results are limits rather than exact numbers.

With `O=C(CCCC(=O)Oc1ccc(C(=O)OCc2ccccc2)cc1)Oc1ccc(C(=O)OCc2ccccc2)cc1`, the melting point (as a rule, the temperature of the solid-liquid transition) was in the range of 93 to 94 °C.
Consider `CS(=O)(=O)NC(c1ccc(Cl)c2nc3n(c12)CCCN3c1c(Cl)cc(Cl)cc1Cl)C(F)(F)F` (stereo unspecified), for which the melting point was 290 to 291 °C.
To `COc1ccc(CSc2nnc(-c3ccc4ncccc4c3)o2)cc1C(F)(F)F` belongs 130 to 131 °C; to `COC(=O)c1ccc(-c2nc3cc(C(=O)OC)ccc3o2)cc1`, 195 to 210 °C; to `C=C(Cc1ccc2c(c1)OCO2)C(=O)O`, 121 °C.
As to `Cc1cccc(-n2c(-c3sc(Nc4ccc(Cl)cc4)nc3-c3ccccc3)nc3ccccc3c2=O)c1`, the melting point lay within 233 to 235 °C.
As for `O=c1n(CCCF)nnn1-c1ccc([N+](=O)[O-])cc1F`, the melting point lay within 86 to 89 °C.
To `CCOC(=O)/C=C/c1cn(-c2ccc(C(F)(F)F)cc2)nc1OCc1ccc(OCc2nc(-c3ccccc3)oc2C)c(OC)c1` belongs 205 to 206 °C.
Compound `CCCCc1oc2ccccc2c1C(=O)NCc1ccc2cc(O)ccc2c1` yielded a melting point of 155 to 156 °C.
In the case of `O=C(O)C[C@H](NC(=O)CNC(=O)c1csc(NC(=O)NCc2ccccc2)n1)C(=O)Nc1ccccc1C(=O)O`, the melting point was found to be 192 °C.
For `CCCn1c(SC)nc2sccc2c1=O`, the melting point lay in the range of 94 to 96 °C.
Compound `CC12C=CC(=O)CC1CCC1C2CCC2(C)C1CCC2(C)O` (stereo unspecified) displayed a melting point of 140 to 142 °C.
`CC(=O)OC12CC3CC(CC(C3)C1)C2` showed a melting point of 144 to 145 °C.
As for `O=C(Nc1ccc2c(c1)OCO2)N1Cc2ccccc2C1`, the melting point fell in the range of 165 to 166 °C.
Take `CC[C@H](C)C(OCc1ccccc1F)[C@H]1[C@H]([N+](=O)[O-])[C@H](c2ccccc2)N[C@@H]1C(=O)NCCC(=O)O` (stereo partly specified): the melting point was 136 to 138 °C.
In turn, `CCCCCCCCOCC(CO)(CO)COCCCCCCCC` gave a melting point of 30 to 32 °C.
`Cc1cccc(C)c1CNc1cc(C(=O)N(C)C)nc2c(CO)c(C)[nH]c12` returned a melting point of 301 °C.
To `CCNc1nc2cccc(C(=O)O)c2n1Cc1ccc(-c2ccccc2-c2nnn[nH]2)cc1` belongs 240 to 242 °C; to `CC(CNC(=S)Nc1ccc(N2CCCCC2)cc1)N(Cc1ccc(Cl)c(Cl)c1)c1ccc(Br)cn1` (stereo unspecified), 125 to 127 °C.
The figure for `COC(=O)C(Cl)=Cc1cc(-n2ncc(C(F)(F)F)c(C)c2=O)c(F)cc1Cl` is 142 to 145 °C; for `Nc1ncnc2c1c(-c1cc(F)c(O)c(F)c1)nn2Cc1oc2ccc(F)cc2c(=O)c1-c1cccc(F)c1` it is 274 to 278 °C.
To `CN(C)CCCC(=O)Nc1nc2c(s1)-c1c(cnn1-c1ccccc1)CC2` belongs 165 to 166 °C; to `CCCCCCCCCCCCCCc1ccc(CCCCCC)c(OCC(O)CO)c1` (stereo unspecified), 46 to 47 °C.
In the case of `Cc1[nH]c(=O)c(C#N)cc1-c1ccc2nccn2c1`, the melting point was greater than 300 °C.
As for `O=Cc1cccn1-c1ccc(C(F)(F)F)cc1Cl`, the melting point was 119 to 120 °C.
Compound `Cc1ccc(N2C(=O)C(O)=C(C(=O)c3ccc(C(C)C)cc3)C2c2ccc(-c3nnc(C)o3)cc2)nn1` (stereo unspecified) had a melting point of 293 °C.
Consider `N#Cc1nc(Cl)c(Oc2ccccc2)nc1C#N`, for which the melting point fell in the range of 115 to 118 °C.
Regarding `CC(C)(c1ccc(O)cc1)c1ccc(N2C(=O)C=CC2=O)cc1`, the melting point was 168 to 171 °C.
Compound `CC(=O)c1nnc(-c2ccc3occ(-c4cccc(OC(F)(F)F)c4)c3c2)o1` came in with a melting point of 64 to 65 °C.
Consider `CCOC(=O)c1cc(Cl)c(-n2nc(CC)c(C(N)=O)c2N)c(Cl)c1`, for which the melting point lay within 194 to 196 °C.
For the compound `CN(C)C(=O)c1ccc(C(=O)Nc2cccc3cc(Br)cnc23)cc1`, the melting point was in the range of 196 to 198 °C.
The figure for `CN(C)S(=O)(=O)n1c(C(F)(F)F)nc2c(Br)cc(C(F)(F)F)cc21` is 147 °C; for `O=C1C=C(NCc2ccccc2I)CCN1` it is 163 to 164 °C; for `CC(C)c1cccc(C(C)C)c1NC(=O)Cc1ccccc1NCC(c1ccccc1)c1ccccc1` it is 174 to 176 °C.
To `CC(=O)c1ccc(Cc2cn(-c3ccc(F)cc3)c3ncccc3c2=O)cc1` belongs 227 to 229 °C; to `CC#CCOc1ccc(S(=O)(=O)N(C)C(CCCSc2ccc(Cl)cc2)C(=O)OC)cc1` (stereo unspecified), 88 to 89 °C; to `CN1C[C@H](CCN2CCC(O)(c3ccc(Cl)cc3)CC2)C=C2c3cccc4[nH]cc(c34)C[C@H]21`, 154 to 157 °C.
Compound `Cc1cc2c(cc1N(Cc1ccccc1)Cc1ccccc1)OC(=O)C2C` (stereo unspecified) returned a melting point of 122 to 123 °C.
To `Cc1ccc(C(Br)C(Br)C(=O)c2ccccc2)cc1` (stereo unspecified) belongs 84 °C; to `CCCCCCCCCCCCCCCCCCOc1cccc(N(CC(=O)OC)CC(=O)OC)c1`, 75 to 77 °C.
As for `CCCc1c(OCCCCCOc2cc(OCCCC(=O)OC)ccc2CCC(=O)OC)ccc2c1OCCC2=O`, the melting point lay within 58 to 59 °C.
As to `COC(=O)Cn1c(C(=O)Nc2nc(-c3cc(Br)c(OC)cc3OC)c(CCC3CCCCC3)s2)cc2ccccc21`, the melting point was 110 to 114 °C.
`O=[N+]([O-])c1oc2c(ccc3ccccc32)c1-c1ccc(Br)cc1` showed a melting point of 230 to 233 °C.
Take `c1ccc(Sc2ccc(Sc3ccccc3)s2)cc1`: the melting point lay within 47 to 48 °C.
With `CCCCCCCCCCCCOc1ccc(C(C)=O)o1`, the melting point is 66 to 67 °C.
Turning to `CC#Cc1[nH]c(=O)n2c1CN(C)Cc1cc(F)ccc1-2`, the melting point was 219 to 220 °C.
The figure for `COc1cccc(-c2ccc3c(c2)C2(CCCCC2)C(=NO)N3)c1` is 101 to 104 °C.
`CC(C)c1ccc2c(c1)OC(C(F)(F)F)C(C(=O)O)=C2` (stereo unspecified) yielded a melting point of 158 to 160 °C.
In turn, `O=C(O)COCc1cc2cc(C(F)(F)F)ccc2n1S(=O)(=O)c1ccccc1` registered a melting point of 158 to 160 °C.
Consider `CCCCCCCCCC(=O)Nc1ccc(S(=O)(=O)Nc2nncs2)cc1`, for which the melting point is 151 to 152 °C.
Compound `CC1C(c2ccc(Cl)cc2Cl)CC(=O)N1O` (stereo unspecified) showed a melting point of 140 to 144 °C.
`CCOC(=O)c1ccc(O[Si](C)(C)C(C)(C)C)c(OC)c1`: the melting point worked out at 103 °C.
Compound `O=[N+]([O-])c1cnn(-c2c(Cl)cc(C(F)(F)F)cc2Cl)c1` showed a melting point of 91 to 97 °C.
Compound `CCCCNc1nc(C)no1` returned a melting point of 62 to 65 °C.
`CCc1ncnc(O)c1Br` came in with a melting point of 175 to 177 °C.
In the case of `Cc1cc(CCCCCOc2c(Cl)cc(C(=O)O)cc2Cl)on1`, the melting point lay within 67 to 69 °C.
Compound `Cn1cc(-c2ccccc2)c(=O)c(-c2cccs2)c1` gave a melting point of 147 to 148 °C.
In turn, `COc1ccc(C(=O)NCCCCn2cnc3c(N)nc4ccccc4c32)c(OC)n1` gave a melting point of 175 to 177 °C.
`CC(=O)Oc1cc2ccc(S(=O)(=O)Cl)cc2cc1OC(C)=O` registered a melting point of 158 to 167 °C.
To `O=C(O)c1c(Cl)ccc([N+](=O)[O-])c1Nc1ccc(OCc2ccccc2)cc1` belongs 172 to 174 °C; to `CC(C)(C)OC(=O)Nc1ccc(C#Cc2ccccc2Cl)cc1N`, 120 to 122 °C.
The figure for `O=C(O)C[C@@H](Cc1ccccc1)C(=O)OCc1ccccc1` is 48 to 52 °C; for `Cc1ccc([N+](=O)[O-])cc1COCC(F)(F)C(F)(F)F` it is 53.5 to 54.5 °C; for `COc1ccc2c(c1Br)CCC=C2C#N` it is 108 to 109 °C.
Regarding `O=C(Oc1ccc(-c2ccc(O)c([N+](=O)[O-])c2)cc1)c1ccccc1`, the melting point worked out at 163 °C.
Consider `CC(C)(C)OC(=O)N(CC=Cc1ccccc1)S(N)(=O)=O`, for which the melting point was 118 °C.
`CN1CCCC1=NC(=O)Nc1ccc(C(F)(F)F)cc1` displayed a melting point of 128 to 131 °C.
Consider `CC1=C(Cc2ccc(NC(=O)OC(C)(C)C)cc2)C(=O)C2C=CC=CC2C1=O` (stereo unspecified), for which the melting point lay within 148 to 149 °C.
On to `Cn1cc(-c2ccccc2)c(=O)c(-c2ccccc2F)c1`, for which the melting point was 165 °C.
The figure for `O=C(Nc1cccnc1)N1CCN(c2nc(-c3cccc(F)c3F)cs2)CC1` is 172 to 173 °C; for `CC#CCOc1ccc(S(=O)(=O)NC2(C(=O)OC)CCCC2)cc1` it is 81 to 83 °C.
`CCN(CC)c1ccc(-n2c(CC(=O)O)c(C(=O)O)c3cc(Oc4cccc(Cl)c4)ccc32)cc1`: the melting point was 186 to 191 °C.
With `C[C@H]1[C@H](O[Si](C)(C)C(C)(C)C)[C@H](O)C(S(=O)(=O)c2ccccc2)=C[C@H](C)[C@H]1O[Si](C)(C)C(C)(C)C`, the melting point lay in the range of 81 to 83 °C.
The figure for `CCCNC(=O)C(C)=Cc1ccc2ccn(Cc3ccc(C(=O)O)cc3OC)c2c1` is 150 to 152 °C.
`Cc1ccccc1NC(=O)Nc1ccc(CC(=O)NC(CC(C)C)C2=NOC(CCC(=O)O)(CCC(=O)O)C2)cc1` (stereo unspecified) had a melting point of 173 to 175 °C.
The figure for `CNC(=S)C1=C(O)C2(CCOCC2)Oc2ccc([N+](=O)[O-])cc21` is 217 to 218 °C.
On to `CCCOc1ccc(OCCCCC(=O)O)c(C=O)c1O`, for which the melting point was in the range of 78 to 79 °C.
For the compound `Cc1ccc(C(=S)c2ccc3n2CCCC3C(=O)O)cc1` (stereo unspecified), the melting point lay in the range of 174 to 175 °C.
The figure for `Cc1nccn1-c1cccc(C2=CC(=O)OC(C)(C)O2)c1` is 122 °C.
Consider `Cn1cc(Sc2ccccc2)c(=O)c(-c2cccc(C(F)(F)F)c2)c1`, for which the melting point was in the range of 164 to 165 °C.
`CC(C)CCN1C(=O)C(NC(=O)Oc2cccc(N(C)C)c2)C(=O)N(CC23CC4CC(CC(C4)C2)C3)c2ccccc21` (stereo unspecified) showed a melting point of 172 to 173 °C.
Turning to `COC1(c2ccccc2)CCc2c(C(=O)N3CCC3)cc3c(nc(C)n3C)c2O1` (stereo unspecified), the melting point is 147 to 150 °C.
To `COc1ccc(C(=O)N[C@H]2CCN(C)C[C@H]2c2ccc(OC)c(OC)c2)cc1` (relative stereo) belongs 223 to 226 °C; to `O=C(O)[C@@H](CCN1C(=O)c2ccccc2C1=O)Oc1c(Br)cc(-c2c(Br)ccc3sc4ccccc4c23)cc1Br`, 130 to 132 °C.
Regarding `CSc1ccc(-c2c(Cl)nc(Cl)nc2-c2ccc(Cl)cc2)cc1`, the melting point lay in the range of 144 to 146 °C.
The figure for `BrCc1c(Br)c(CBr)c(Br)c(CBr)c1Br` is 220 to 223 °C.
